Tests used:
[1] = tested on: HIV-1 pNL4-3; assay: HIV-1 5-day cytoprotection assay in MT4 cells; type: cell-based, human immunodeficiency virus type 1; conditions: Human immunodeficiency virus 1, HIV-1 pNL4-3 infectivity, HIV-1 PI alone
Experimental: . […]. The plates were incubated at 37°C for 5 days. After this period, 25 μl MTT reagent (4 mg/ml) was added to the cells, and the plates were incubated for 4 h. The MTT formazan formed in the cells was solubilized by 50 μl of acidified SDS overnight. The plates were read at wavelengths of 570 and 650 nm using a spectrophotometer. […]

[2] = biological target: T1, 6a D168A; assay: Luciferase assay of HCV replication in transient-transfection replicons with wild-type or substituted NS3 (at least 3 transfections).; type: cell-based, Huh-7; conditions: SD, n = 3
T1 construct: in chimeric transient replicon

[3] = biological target: T2, 6a D168H; assay: as above; type: cell-based, Huh-7; conditions: SD, n = 3
T2 construct: in chimeric transient replicon

[4] = biological target: T3, GT6a / 6a Wild type; assay: as above; type: cell-based, Huh-7; conditions: SD, n = 3
T3 construct: NS3 N-terminal region in chimeric replicon

[5] = biological target: T4, 3a Q168R; assay: as above; type: cell-based, Huh-7; conditions: SD, n = 3
T4 construct: in chimeric transient replicon

[6] = biological target: T5, 4a A156V; assay: as above; type: cell-based, Huh-7; conditions: SD, n = 3
T5 construct: in chimeric transient replicon

[7] = tested on: T3, GT6a / 6a Wild type; assay: Luciferase reporter assay of HCV replication in stable subgenomic replicon cells, 5% fetal bovine serum, no human plasma (at least 3 experiments).; type: cell-based, Huh-7; conditions: SD, n = 3; read-out: HCV stable replicons in 0% human plasma, Mean EC50 ± SD
Excerpt: (§1) . Five of these nine cell lines have been described previously, including those transfected with genotypes 1a H77, 1b Con1, 3a, 4a, and 6a ([28]). The other four cell lines were established by transfecting cells with a nonchimeric genotype 2a JFH-1 replicon (GenBank accession number AB047639), two genotype 2a JFH-1 chimeric replicons containing either a genotype 2b NS3 protease domain (N-terminal 251 amino acids) or a sequence encoding full-length NS3 through the first 39 amino acids of NS5B from genotype 5a (strain SA13), and one chimeric replicon with a genotype 1b Con1 backbone containing full-length NS3 and NS4A sequences from genotype 6e. The genotype 2b and 6e NS3 sequences were each synthetically constructed based on a consensus sequence derived from the alignment of 15 genotype 2b and 4 genotype 6e sequences, respectively. All replicon constructs were bicistronic subgenomic replicons similar to those described by Bartenschlager and coworkers, and the replicon cell lines were generated by introducing these constructs into cells of an Huh-7 human hepatoma-derived cell line ([50]). The inhibitory effect of the PIs on HCV replication in replicon cells was determined in Dulbecco's modified Eagle medium containing 5% fetal bovine serum with or without 40% human plasma (Bioreclamation, Westbury, NY). The EC50s were determined using nonlinear regression curve fitting as described previously ([33]).

[8] = tested on: T6, GT4a / 4a Wild type; assay: as above; type: cell-based, Huh-7; conditions: SD, n = 3; read-out: HCV stable replicons in 0% human plasma, Mean EC50 ± SD
T6 construct: NS3 N-terminal region in chimeric replicon
Excerpt: as §1

[9] = tested on: T7, GT3a / 3a Wild type; assay: as above; type: cell-based, Huh-7; conditions: SD, n = 3; read-out: HCV stable replicons in 0% human plasma, Mean EC50 ± SD
T7 construct: NS3 N-terminal region in chimeric replicon
Excerpt: as §1

[10] = tested on: T8, GT6e; assay: as above; type: cell-based, Huh-7; conditions: SD, n = 3; read-out: HCV stable replicons in 0% human plasma, Mean EC50 ± SD
T8 construct: full-length NS3 and NS4A in genotype 1b Con1 chimeric replicon
Excerpt: as §1

[11] = tested on: 4d D168V; conditions: read-out: Mean EC50 ± SD, n = 3
Experimental: Mutagenesis was performed using a Change-IT multiple-mutation site-directed mutagenesis kit (USB, Cleveland, OH) or by cloning a synthesized DNA fragment encoding the amino acid substitution(s). The genotype 1a and 1b replicon shuttle vectors used for the introduction of the substitutions of interest in the NS3, NS5A, or NS5B gene for transient-transfection assays have been described previously ([28], [33]). The replicon shuttle vectors used for the introduction of substitutions in NS3 genes from other genotypes were similar to the stable replicon cell line constructs described above, except for the absence of the neo gene. After mutagenesis, the plasmids were linearized and RNA was transcribed and then used to transfect Huh-7 cells. Inhibition of HCV replication by the HCV inhibitors was measured by luciferase assay, as described above. Replication efficiency was calculated as a percentage of wild-type replication, as described previously ([28]).

[12] = biological target: T9, 3a A156G; assay: Luciferase assay of HCV replication in transient-transfection replicons with wild-type or substituted NS3 (at least 3 transfections).; type: cell-based, Huh-7; conditions: SD, n = 3
T9 construct: in chimeric transient replicon

[13] = biological target: T10, 6a D168V; assay: as above; type: cell-based, Huh-7; conditions: SD, n = 3
T10 construct: in chimeric transient replicon

[14] = biological target: T11, 2b D168E; assay: as above; type: cell-based, Huh-7; conditions: SD, n = 3
T11 construct: in genotype 2a JFH-1 chimeric transient replicon

[15] = biological target: T12, 4a D168H; assay: as above; type: cell-based, Huh-7; conditions: SD, n = 3
T12 construct: in chimeric transient replicon

[16] = biological target: T13, 2b D168V; assay: as above; type: cell-based, Huh-7; conditions: SD, n = 3
T13 construct: in genotype 2a JFH-1 chimeric transient replicon

[17] = biological target: T14, 2b D168A; assay: as above; type: cell-based, Huh-7; conditions: SD, n = 3
T14 construct: in genotype 2a JFH-1 chimeric transient replicon

[18] = biological target: T15, 4d Wild type; assay: as above; type: cell-based, Huh-7; conditions: SD, n = 3
T15 construct: NS3 in transient replicon

[19] = biological target: T16, 2b A156T; assay: as above; type: cell-based, Huh-7; conditions: SD, n = 3
T16 construct: in genotype 2a JFH-1 chimeric transient replicon

[20] = biological target: T6, GT4a / 4a Wild type; assay: as above; type: cell-based, Huh-7; conditions: SD, n = 3
[21] = biological target: T17, 4a R155C; assay: as above; type: cell-based, Huh-7; conditions: SD, n = 3
T17 construct: in chimeric transient replicon

[22] = biological target: T18, 2b A156V; assay: as above; type: cell-based, Huh-7; conditions: SD, n = 3
T18 construct: in genotype 2a JFH-1 chimeric transient replicon

[23] = biological target: T19, GT2b / 2b Wild type; assay: as above; type: cell-based, Huh-7; conditions: SD, n = 3
T19 construct: NS3 protease domain (N-terminal 251 aa) in genotype 2a JFH-1 chimeric replicon

[24] = biological target: T20, 4a D168V; assay: as above; type: cell-based, Huh-7; conditions: SD, n = 3
T20 construct: in chimeric transient replicon

[25] = biological target: T21, 4a A156T; assay: as above; type: cell-based, Huh-7; conditions: SD, n = 3
T21 construct: in chimeric transient replicon

[26] = biological target: T7, GT3a / 3a Wild type; assay: as above; type: cell-based, Huh-7; conditions: SD, n = 3
[27] = tested on: genotype 1b Con1 replicon cells; assay: Checkerboard combination assay (MacSynergy II); type: cell-based, Hepatitis C virus
Experimental: […]. The resulting data were analyzed using the MacSynergy II program ([34], [51], [52]). The assignment of the synergy or antagonism volumes was based on the guidelines provided in the MacSynergy II program user's manual ([34]).

Q: For CC(C)CN(C[C@@H](O)[C@H](Cc1ccccc1)NC(=O)O[C@H]1CO[C@H]2OCC[C@H]21)S(=O)(=O)c1ccc(N)cc1 [Darunavir], which EC50 [1] is on record?
A: The EC50 was 10 nM.

Q: Which results are given for C=C[C@@H]1C[C@]1(NC(=O)[C@@H]1C[C@@H]2CN1C(=O)[C@H](C(C)(C)C)NC(=O)O[C@@H]1C[C@H]1CCCCCc1nc3ccc(OC)cc3nc1O2)C(=O)NS(=O)(=O)C1CC1 [Grazoprevir, grazoprevir (MK-5172)]?
A: EC50 [2]: 103 ± 34 nM; EC50 [3]: 45 ± 4.1 nM; EC50 [4]: 0.1 ± 0.02 nM; EC50 [5]: 165 ± 46 nM; EC50 [6]: 169 ± 27 nM; EC50 [7]: 0.89 ± 0.32 nM; EC50 [8]: 1.2 ± 0.31 nM; EC50 [9]: 83 ± 18 nM; EC50 [10]: 0.25 ± 0.01 nM; EC50 [11]: 2.5 ± 0.08 nM; EC50 [12]: 614 ± 148 nM; EC50 [13]: 24 ± 1.2 nM; EC50 [14]: 35 ± 6 nM; EC50 [15]: 25 ± 6.3 nM; EC50 [16]: 88 ± 19 nM; EC50 [17]: 347 ± 113 nM; EC50 [18]: 0.18 ± 0.01 nM; EC50 [19]: 1560 nM; EC50 [20]: 0.28 ± 0.04 nM; EC50 [21]: 2 ± 0.27 nM; EC50 [22]: 2890 nM; EC50 [23]: 6.1 ± 1.3 nM; EC50 [24]: 13 ± 1.1 nM; EC50 [25]: 296 ± 22 nM; EC50 [26]: 47 ± 14 nM

Q: Which EC50 [1] does the source give for Cc1cccc(C)c1OCC(=O)N[C@@H](Cc1ccccc1)[C@@H](O)C[C@H](Cc1ccccc1)NC(=O)[C@H](C(C)C)N1CCCNC1=O [Lopinavir] here?
A: Its EC50 is 23 nM.

Q: How did the EC50 ([27]; Hepatitis C virus) turn out when NC(=O)c1ncn([C@@H]2O[C@H](CO)[C@@H](O)[C@H]2O)n1 [RBV, reference compound] was run?
A: The EC50 was 19000 nM.

Q: Which EC50 ([27]; genotype 1b replicon cells) does the source give for IFN-α here?
A: Its EC50 is 1.2 IU/ml.

— publication PMC5740381 (Antimicrobial Agents and Chemotherapy, 2017)
